Assay results taken from BindingDB's records for patent US12030880 (Chia Tai Tianqing Pharmaceutical Group, 2024).
pIC50: −log10 of the molar value.

Legend:
[1] = molecular target: T1, Bromodomain-containing protein 4 [44-168] (Human, UniProt O60885); test: In Vitro BRD4 (BD1) Enzymatic Activity Assay
T1 construct: 44-168
Description: In the present application, IC50 values of the compounds in inhibiting BRD4 (BD1) enzyme binding reaction were determined by homogeneous time resolved fluorescence (HTRF). A compounds was serially diluted 5-fold with 100% DMSO starting from 0.2 mM (7 concentrations in total), and then 2 μL of the compound at each concentration was added to 48 μL of a reaction buffer (20 mM HEPES pH 7.5, 150 mM NaCl, 5 mM DTT, 0.005% Tween 20, and 100 μg/mL BSA) for dilution, and mixed well. 2.5 μL of the resulting mixture was added to a 384-well plate (OptiPlate-384, purchased from PerkinElmer), then 5 μL of GST-BRD4 (BD1, 44-168 aa) (final concentration: 1 nM) was added, and the resulting mixture was centrifuged, and fully mixed. 2.5 μL of a short peptide Biotin-AHA-SGRGK(Ac)GGK(Ac)GLGK(Ac)GGAK(Ac) RHRKV (final concentration: 100 nM) was then added to initiate the reaction (total reaction volume: 10 μL). […] After being incubated in the incubator for another 1 hour, the fluorescence values (excited at 320 nm, emitted light at 665 nm and 620 nm being detected, and the ratio of the two being the enzyme binding signal) were read on Envision (purchased from PerkinElmer).

[2] = molecular target: T2, Bromodomain-containing protein 4 [349-460] (Homo sapiens, UniProt O60885); test: In Vitro BRD4 (BD2) Enzymatic Activity Assay
T2 construct: 349-460
Description: In the present application, IC50 values of the compounds in inhibiting BRD4 (BD2) enzyme binding reaction were determined by homogeneous time resolved fluorescence (HTRF). A compound was serially diluted 5-fold with 100% DMSO starting from 1 mM (7 concentrations in total), and then 2 μL of the compound at each concentration was added to 18 μL of a reaction buffer (20 mM HEPES pH 7.5, 150 mM NaCl, 5 mM DTT, 0.005% Tween 20, and 100 μg/mL BSA) for dilution. After being mixed well, 2 μL of the compound at each concentration was added to 48 μL of the above reaction buffer for dilution, and mixed well (final concentration of the compound in DMSO: 0.1%). 2.5 μL of the resulting mixture was added to a 384-well plate (OptiPlate-384, purchased from PerkinElmer), then 5 μL of GST-BRD4 (BD2, 349-460 aa) (final concentration: 2 nM) was added, and the resulting mixture was centrifuged, and fully mixed. 2.5 μL of a peptide Biotin-AHA-SGRGK(Ac)GGK(Ac)GLGK(Ac)GGAK(Ac) RHRKV (final concentration: 200 nM) was then added to initiate the reaction (total reaction volume: 10 μL). […] After being incubated in the incubator for another 1 hour, the fluorescence values (excited at 320 nm, emitted light at 665 nm and 620 nm being detected, and the ratio of the two being the enzyme binding signal) were read on Envision (purchased from PerkinElmer).

CCNC(=O)c1cc2c(-c3cc(N=S(C)(C)=O)ccc3Oc3ccc(S(C)(=O)=O)cc3)cn(C)c(=O)c2[nH]1 [US12030880, Example 1]
pIC50 [1]: 7.83
pIC50 [2]: 9.29

Cn1cc(-c2cc(N=S(C)(C)=O)ccc2Oc2ccc(C#N)cc2F)c2cc[nH]c2c1=O [US12030880, Example 2]
pIC50 [1]: 8.85
pIC50 [2]: 9.01
